Measurements published in paper PMC12147034, “Identification of alkynyl nicotinamide HSN748 as a RET solvent-front mutant inhibitor with intracranial efficacy” (RSC Medicinal Chemistry, 2025).
Changes are numbered by the printed parent chain. Values joined by “and” are separate entries in the source; they are usually repeats but may differ in a detail not shown here. Identical values can stand only once.

Columns and labels:
Format in all cases: cell-based
[1] = target: T1, B/KR(V804L) cells, KIF5B-RET V804L (Homo sapiens, UniProt P07949+P33176, V804L); assay: Cell viability assay (CellTiter-Glo, 3 days) in B/KR(V804L) cells
T1 construct: FLAG; expressed in transfected cells; host or cells: BaF3
T1 sequence (P07949 713-1063 V804L limits assumed): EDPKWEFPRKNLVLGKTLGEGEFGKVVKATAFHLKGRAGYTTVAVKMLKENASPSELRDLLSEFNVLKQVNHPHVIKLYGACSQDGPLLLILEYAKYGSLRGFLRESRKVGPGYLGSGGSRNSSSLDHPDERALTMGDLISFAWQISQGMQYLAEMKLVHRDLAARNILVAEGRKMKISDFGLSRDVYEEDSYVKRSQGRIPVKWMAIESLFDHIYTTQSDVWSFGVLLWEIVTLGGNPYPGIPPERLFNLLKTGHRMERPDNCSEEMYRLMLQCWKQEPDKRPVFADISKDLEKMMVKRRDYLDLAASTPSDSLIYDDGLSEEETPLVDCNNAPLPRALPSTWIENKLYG
Protocol: (§1) BaF3 cell lines expressing a flag-tagged KIF5B-RET (B/KR) and the KIF5B-RET containing G810C, G810R, G810S, V804M, V804L mutations were as reported.[8,13,17,21–23] […] Infected cells were cultured for two weeks, and cells with high GFP intensity were sorted into a 96-well plate (1 cell/well). After the expansion of growing cell lines, they were screened for a high level of luciferase activity by luminescence imaging after exposure to D-luciferin. IMR-90 cells were from ATCC.
(§2) The TEL-VEGFR2 cDNA was then subcloned into pLentP lentiviral vector.[21] and BaF3/TEL-VEGFR2 (B/TV) cells were generated by infecting BaF3 cells with the lentiviral TEL-VEGFR2 as described. Cell viability assay was performed using CellTiter-Glo reagent (G7573, Promega, Madison, WI, USA) after 3 days of drug treatment as described for BaF3-derived cells and 5 days for IMR-90 cells.

[2] = target: T2, B/KR(V804M) cells, KIF5B-RET V804M (Homo sapiens, UniProt P07949+P33176, V804M); assay: Cell viability assay (CellTiter-Glo, 3 days) in B/KR(V804M) cells
T2 construct: FLAG; expressed in transfected cells; host or cells: BaF3
T2 sequence (P07949 713-1063 V804M limits assumed): T1 sequence (P07949 713-1063 V804L limits assumed) with L92M
Protocol: as §1, §2

[3] = target: T3, B/KR(G810S) cells, KIF5B-RET G810S (Homo sapiens, UniProt P07949+P33176, G810S); assay: Cell viability assay (CellTiter-Glo, 3 days) in B/KR(G810S) cells
T3 construct: FLAG; expressed in transfected cells; host or cells: BaF3
T3 sequence (P07949 713-1063 G810S limits assumed): T1 sequence (P07949 713-1063 V804L limits assumed) with L92V, G98S
Protocol: as §1, §2

Row | SMILES | IC50 [1] | IC50 [2] | IC50 [3] [nM]
1 | CN1CCN(Cc2ccc(NC(=O)c3cncc(C#Cc4cnc5cccnn45)c3)cc2C(F)(F)F)CC1 [HSN748] | 55 nM and 55.7 nM | 88 nM and 88.2 nM | 13.9 ± 0.32
2 | Cc1n[nH]c2ncc(C#Cc3cncc(C(=O)Nc4ccc(CN5CCN(C)CC5)c(C(F)(F)F)c4)c3)cc12 [HSND19, 5-((3-Methyl-1H-pyrazolo[3,4-b]pyridin-5-yl)ethynyl)-N-(4-((4-methylpiperazin-1-yl)methyl)-3-(trifluoromethyl)phenyl)nicotinamide] | 20.6 ± 2.22 nM | 6.52 ± 0.45 nM | 4 ± 0.16
3 | CCOc1ccc2ncc(C#Cc3cncc(C(=O)Nc4ccc(CN5CCN(C)CC5)c(C(F)(F)F)c4)c3)n2n1 [HSND14, 5-((6-Ethoxyimidazo[1,2-b]pyridazin-3-yl)ethynyl)-N-(4-((4-methylpiperazin-1-yl)methyl)-3-(trifluoromethyl)phenyl)nicotinamide] | 30 ± 1.2 nM | 20 ± 0.89 nM | 5.21 ± 0.15
